Laboratory results published in US6387925B1, “Polymorphs of a crystalline azo-bicyclo (2.2.2) oct-3-yl amine citrate and their pharmaceutical compositions” (Pfizer Inc., priority 1999, dated 2002).
Entries after “also recorded” stand apart in the source; their conditions may differ. Structures can show the parent of a compound that is named as a salt. Where two headings read alike, the source gives them in different places.

Test: Hygroscopicity measurements
Assay type: physicochemical
Conditions: for water absorbed (hygroscopicity): at 90% RH
Description: Anhydrous citrate synthesis was carried out by adding 1.1 equivalents citric acid to a stirred slurry of the free base in isopropanol (15 volumes) at room temperature. The resulting solution was stirred and monitored by differential scanning calorimetry and after all the free base had reacted (18 hours), the anhydrous citrate salt was obtained as a white crystalline solid by filtration and drying under house vacuum at 45° C. with nitrogen purge (83% yield). […] The crystalline habits frequently encountered are microcrystalline flakes. The most intense reflections, d spacings, observed by X-ray powder diffraction were 17.608, 10.953, 8.782, 7.956, 7.371, 6.802, 6.571, 5.866, 5.462, 4.907, 4.415, 4.188, 3.635 and 3.512Å.
The resulting citrate monohydrate salt, Form A, was compared to an authentic sample and characterized via PLM, X-ray powder diffraction, proton NMR, Karl Fisher, DSC and elemental analysis. […] The two crystalline habits having similar refractograms encountered were plates and needles. The needle habit was as a result of different rate of growth of the crystal faces in water whereas in isopropanol/water more even growth of crystal faces produced plates. The most intense reflections, d spacings, observed by X-ray powder diffraction were 17.730, 10.928, 9.651, 8.253, 6.707, 5.981, 5.666, 5.450, 4.833, 4.488, and 3.646Å. […] Elemental analysis validated the purity of the salt synthesized.

hygroscopicity (in words)	Compound	water absorbed (hygroscopicity)	hygroscopicity (in words) (citrate monohydrate)
–	COc1ccc(C(C)C)cc1CNC1C2CCN(CC2)C1C(c1ccccc1)c1ccccc1.O.O=C(O)CC(O)(CC(=O)O)C(=O)O (stereo not shown) [Form A]	2.44 % wt./wt.	hygroscopically stable; also recorded: lack of hygroscopicity
nonhygroscopic	COc1ccc(C(C)C)cc1CN[C@H]1C2CCN(CC2)[C@H]1C(c1ccccc1)c1ccccc1 [anhydrous citrate salt, (2-Benzhydryl-1-azo-bicyclo[2.2.2]oct-3-yl)-(5-isopropyl-2-methoxybenzyl)-amine citrate]	1.11 % wt./wt.	–
